Results taken from ChEMBL document CHEMBL3045758, “Quantitative Structure-Activity Relationships of Fungicidal N-Phenylformamidoximes” (J Pestic Sci, 1992).

Assays:
Phaseolus vulgaris = assay: Phytotoxicity against Phaseolus vulgaris (kidney bean) assessed as necrosis of leaf at 100 ppm after 7 days in greenhouse conditions; assay type: organism-based; details: in vivo, 168 h
Botrytis cinerea [1] = assay: Fungicidal activity against benzimidazole-resistant Botryotinia fuckeliana infected kidney bean leaf at 100 ppm after 7 days in greenhouse conditions by detached leaf test; assay type: functional
[2] = 1-octanol/water distribution coefficient, log P of the compound; assay type: physicochemical
Botrytis cinerea [3] = assay: Fungicidal activity against benzimidazole-resistant Botryotinia fuckeliana after 48 hr by poisoned food technique; assay type: functional, organism-based
Botrytis cinerea [4] = assay: Fungicidal activity against benzimidazole-resistant Botryotinia fuckeliana at 200 ppm after 48 hr by poisoned food technique; assay type: functional
Botrytis cinerea [5] = assay: Fungicidal activity against benzimidazole-resistant Botryotinia fuckeliana at 6.2 ppm after 48 hr by poisoned food technique; assay type: functional
Botrytis cinerea [6] = assay: Fungicidal activity against benzimidazole-resistant Botryotinia fuckeliana at 25 ppm after 48 hr by poisoned food technique; assay type: functional
Botrytis cinerea [7] = assay: Fungicidal activity against benzimidazole-sensitive Botryotinia fuckeliana after 48 hr by poisoned food technique; assay type: functional, organism-based
Botrytis cinerea [8] = assay: Resistance ratio of EC50 for benzimidazole-resistant Botryotinia fuckeliana to EC50 for benzimidazole-sensitive Botryotinia fuckeliana; assay type: functional
Botrytis cinerea [9] = assay: Ratio of DMPF EC50 to compound EC50 for benzimidazole-resistant Botryotinia fuckeliana; assay type: functional
[10] = Botrytis cinerea, 48 h, read-out: pEC50 (converted)

| Compound | Activity (Phaseolus vulgaris) | Activity (Botrytis cinerea [1]) [%] | logP [2] | EC50 (Botrytis cinerea [3]; [10]) [µM] | Activity (Botrytis cinerea [4]) [%] | Activity (Botrytis cinerea [5]) [%] | Activity (Botrytis cinerea [6]) [%] | EC50 (Botrytis cinerea [3]) [ppm] | EC50 (Botrytis cinerea [7]) [ppm] | Ratio EC50 (Botrytis cinerea [8]) | Ratio EC50 (Botrytis cinerea [9]) |
| --- | --- | --- | --- | --- | --- | --- | --- | --- | --- | --- | --- |
| CCO/N=C/Nc1cc(Cl)cc(Cl)c1 | <= 10% | <25 | 3 | 12 | 100 | <25 | 26 | – | – | – | – |
| CO/N=C/Nc1cc(Cl)cc(Cl)c1 | – | – | – | – | – | – | – | 3 | 50 | 10000 | – |
| C#CCc1c(Cl)cc(N/C=N/OC)cc1Cl | Non-toxic | – | 3.3 | 0.0182 | – | – | – | 0.005 | 30 | 10 | 600 |
| CCO/N=C/Nc1ccccc1 | Non-toxic | <25 | – | – | <25 | <25 | <25 | – | – | – | – |
| CCO/N=C/Nc1ccccc1Cl | <= 10% | <25 | – | – | 100 | <25 | <25 | – | – | – | – |
| CCO/N=C/Nc1cccc(Cl)c1 | <= 10% | <25 | – | – | 50 | <25 | <25 | – | – | – | – |
| CCO/N=C/Nc1ccc(Cl)cc1 | Non-toxic | <25 | – | – | 70 | <25 | <25 | – | – | – | – |
| CCO/N=C/Nc1ccccc1CC | Non-toxic | <25 | – | – | 100 | 26 | 100 | – | – | – | – |
| CCO/N=C/Nc1cccc(CC)c1 | Non-toxic | <25 | – | – | 70 | <25 | <25 | – | – | – | – |
| CCO/N=C/Nc1ccc(CC)cc1 | Non-toxic | <25 | – | – | 26 | <25 | <25 | – | – | – | – |
| CCO/N=C/Nc1c(Cl)c(Cl)cc(Cl)c1Cl [N'-ETHOXY-N-(2,3,5,6-TETRACHLOROPHENYL)FORMIMIDAMIDE] | Non-toxic | <25 | – | – | <25 | <25 | <25 | – | – | – | – |
| CCO/N=C/Nc1cc(Cl)c(Cl)cc1Cl [N'-ETHOXY-N-(2,4,5-TRICHLOROPHENYL)FORMIMIDAMIDE] | Non-toxic | <25 | – | – | 26 | <25 | <25 | – | – | – | – |
| CCO/N=C/Nc1c(Cl)cc(Cl)cc1Cl [N'-ETHOXY-N-(2,4,6-TRICHLOROPHENYL)FORMIMIDAMIDE] | 11% | <25 | – | – | 100 | <25 | <25 | – | – | – | – |
| CCO/N=C/Nc1cc(C)cc(C)c1OCC [N'-ETHOXY-N-(2-ETHOXY-3,5-DIMETHYLPHENYL)FORMIMIDAMIDE] | Non-toxic | <25 | – | – | 100 | 50 | 100 | – | – | – | – |
| CCO/N=C/Nc1cc(Cl)c(Cl)c(Cl)c1 [N'-ETHOXY-N-(3,4,5-TRICHLOROPHENYL)FORMIMIDAMIDE] | Non-toxic | <25 | – | – | 26 | <25 | <25 | – | – | – | – |
| CCO/N=C/Nc1cc(OCC)c(OCC)c(OCC)c1 [N'-ETHOXY-N-(3,4,5-TRIETHOXYPHENYL)FORMIMIDAMIDE] | Non-toxic | <25 | – | – | 100 | <25 | 26 | – | – | – | – |
| CCO/N=C/Nc1ccc(OCC)cc1C [N'-ETHOXY-N-(4-ETHOXY-2-METHYLPHENYL)FORMIMIDAMIDE] | <= 10% | <25 | – | – | <25 | <25 | <25 | – | – | – | – |
| CCO/N=C/Nc1cc(C)c(OCC)c(C)c1 [N'-ETHOXY-N-(4-ETHOXY-3,5-DIMETHYLPHENYL)FORMIMIDAMIDE] | <= 10% | 50 | – | – | 100 | 50 | 100 | – | – | – | – |
| CCO/N=C/Nc1ccc(OCC)c(C)c1 [N'-ETHOXY-N-(4-ETHOXY-3-METHYLPHENYL)FORMIMIDAMIDE] | 11% | <25 | – | – | 100 | <25 | <25 | – | – | – | – |
| CCO/N=C/Nc1cc(C)c(OCC)c(OCC)c1 [N-(3,4-DIETHOXY-5-METHYLPHENYL)-N'-ETHOXYFORMIMIDAMIDE] | Non-toxic | 70 | – | – | 100 | 100 | 100 | – | – | – | – |
| CCO/N=C/Nc1cc(Cl)cc(Cl)c1OCC [N-(3,5-DICHLORO-2-ETHOXYPHENYL)-N'-ETHOXYFORMIMIDAMIDE] | Non-toxic | <25 | – | – | 100 | 70 | 90 | – | – | – | – |
| CCO/N=C/Nc1cc(Cl)c(OCC)c(Cl)c1 [N-(3,5-DICHLORO-4-ETHOXYPHENYL)-N'-ETHOXYFORMIMIDAMIDE] | Non-toxic | 100 | – | – | 100 | 90 | 100 | – | – | – | – |
| CCO/N=C/Nc1cc(Cl)c(C)c(Cl)c1 [N-(3,5-DICHLORO-4-METHYLPHENYL)-N'-ETHOXYFORMIMIDAMIDE] | Non-toxic | <25 | – | – | <25 | <25 | <25 | – | – | – | – |
| CCO/N=C/Nc1cc(Cl)c(OCC)c(OCC)c1 [N-(3-CHLORO-4,5-DIETHOXYPHENYL)-N'-ETHOXYFORMIMIDAMIDE] | Non-toxic | 100 | – | – | 100 | 100 | 100 | – | – | – | – |
| CCO/N=C/Nc1ccc(OCC)c(Cl)c1 [N-(3-CHLORO-4-ETHOXYPHENYL)-N'-ETHOXYFORMIMIDAMIDE] | Non-toxic | <25 | – | – | 100 | <25 | 26 | – | – | – | – |
| CCO/N=C/Nc1ccc(C)c(Cl)c1 [N-(3-CHLORO-4-METHYLPHENYL)-N'-ETHOXYFORMIMIDAMIDE] | <= 10% | <25 | – | – | 100 | <25 | 26 | – | – | – | – |
| CCO/N=C/Nc1ccc(Cl)cc1C [N-(4-CHLORO-2-METHYLPHENYL)-N'-ETHOXYFORMIMIDAMIDE] | 11% | <25 | – | – | 70 | <25 | <25 | – | – | – | – |
| CCO/N=C/Nc1cc(Cl)ccc1OCC [N-(5-CHLORO-2-ETHOXYPHENYL)-N'-ETHOXYFORMIMIDAMIDE] | <= 10% | <25 | – | – | 100 | <25 | 100 | – | – | – | – |
